In general, GI50 refers to the concentration that inhibits growth by half. A lower GI50 goes with more potent growth inhibition.

The source made the active and inactive calls. No cut-off for these calls is given here. A value given as a limit tells only on which side of the number the result lay.

This note sets out measurements from ChEMBL document CHEMBL3085738, “Synthesis, structure-activity relationship and biological evaluation of 2,4,5-trisubstituted pyrimidine CDK inhibitors as potential anti-tumour agents” (Eur J Med Chem, 2013).

Assay [1] has as its target CDK2/Cyclin A2 (Homo sapiens, UniProt P24941). The assay can be described thus: Inhibition of CDK2/Cyclin A (unknown origin) by radiometric assay. Particulars: read-out: Ki(app). In kind it is protein-complex assay.
For assay [2], the target named is Cyclin-dependent kinase 7/ cyclin H (Homo sapiens, UniProt P50613). The assay can be described thus: Inhibition of CDK7/Cyclin H (unknown origin) by radiometric assay. In kind it is protein-complex assay. To be noted: read-out: Ki(app).
Assay [3] addresses CDK9/cyclin T1 (Homo sapiens, UniProt P50750). The assay can be described thus: Inhibition of CDK9/Cyclin T1 (unknown origin) by radiometric assay. Format: protein-complex assay. Particulars: read-out: Ki(app).
Assay [4] concerns the target Cyclin-dependent kinase 1/cyclin B1 (Homo sapiens, UniProt P06493). The assay can be described thus: Inhibition of CDK1/Cyclin B (unknown origin) by radiometric assay. Format: protein-complex assay. To be noted: read-out: Ki(app).
Assay [5] deals with MCF7. The assay can be described thus: Growth inhibition of human MCF7 cells after 48 hrs by MTT assay. In kind it is functional. To be noted: MCF7, 48 h.
For assay [6], the system named is HCT-116. The assay can be described thus: Growth inhibition of human HCT116 cells after 48 hrs by MTT assay. In kind it is functional. To be noted: HCT-116, 48 h. A general note: Tetrazolium dyes change colour on reduction, which living cells bring about.
Assay [7] deals with Cyclin-dependent kinase 9 (Homo sapiens) (UniProt P50750). The assay can be described thus: Inhibition of CDK9 in human HCT116 cells assessed as downregulation of Mcl-1 protein expression at 1 to 5 uM after 24 hrs by Western blot analysis. Format: cell-based. Particulars: HCT-116. For orientation: In western blotting, separated proteins are transferred to a membrane and probed.

Assay [8] has the same target. The assay can be described thus: Inhibition of CDK9 in human HCT116 cells assessed as decrease in RNAP2 CTD phosphorylation at Ser2 at 1 to 5 uM after 24 hrs by Western blot analysis. Particulars: HCT-116. Format: cell-based.
For assay [9] the target is unchanged. The assay can be described thus: Inhibition of CDK9 in human HCT116 cells assessed as decrease in RNAP2 CTD phosphorylation at Ser5 at 10 uM after 24 hrs by Western blot analysis. Format: cell-based. To be noted: HCT-116.
The species entered for assay [10] is Homo sapiens. The assay can be described thus: Selectivity ratio of Ki(app) for CDK7/Cyclin H (unknown origin) to Ki(app) for CDK9/Cyclin T1 (unknown origin).

CDK9/cyclin T1, sequence (O60563 whole entry): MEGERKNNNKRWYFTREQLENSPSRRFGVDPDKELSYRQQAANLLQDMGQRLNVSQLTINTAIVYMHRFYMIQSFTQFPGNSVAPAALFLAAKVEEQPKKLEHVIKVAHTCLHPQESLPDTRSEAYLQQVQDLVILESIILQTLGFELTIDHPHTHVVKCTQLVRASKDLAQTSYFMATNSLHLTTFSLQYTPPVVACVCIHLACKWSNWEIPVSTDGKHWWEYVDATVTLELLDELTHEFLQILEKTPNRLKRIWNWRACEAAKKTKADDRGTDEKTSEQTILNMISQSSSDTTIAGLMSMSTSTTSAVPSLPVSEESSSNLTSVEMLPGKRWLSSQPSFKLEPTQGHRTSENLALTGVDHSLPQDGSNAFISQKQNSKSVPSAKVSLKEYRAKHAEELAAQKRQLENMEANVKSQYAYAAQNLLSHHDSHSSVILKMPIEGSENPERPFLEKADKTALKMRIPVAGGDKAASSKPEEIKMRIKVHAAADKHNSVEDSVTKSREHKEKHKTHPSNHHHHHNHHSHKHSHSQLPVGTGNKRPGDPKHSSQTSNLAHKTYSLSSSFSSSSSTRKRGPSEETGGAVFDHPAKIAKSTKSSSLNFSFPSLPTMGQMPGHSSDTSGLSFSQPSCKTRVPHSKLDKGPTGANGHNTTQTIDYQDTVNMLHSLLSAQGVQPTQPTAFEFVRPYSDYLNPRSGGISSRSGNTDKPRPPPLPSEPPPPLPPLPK
CDK9/cyclin T1, sequence (P50750 whole entry): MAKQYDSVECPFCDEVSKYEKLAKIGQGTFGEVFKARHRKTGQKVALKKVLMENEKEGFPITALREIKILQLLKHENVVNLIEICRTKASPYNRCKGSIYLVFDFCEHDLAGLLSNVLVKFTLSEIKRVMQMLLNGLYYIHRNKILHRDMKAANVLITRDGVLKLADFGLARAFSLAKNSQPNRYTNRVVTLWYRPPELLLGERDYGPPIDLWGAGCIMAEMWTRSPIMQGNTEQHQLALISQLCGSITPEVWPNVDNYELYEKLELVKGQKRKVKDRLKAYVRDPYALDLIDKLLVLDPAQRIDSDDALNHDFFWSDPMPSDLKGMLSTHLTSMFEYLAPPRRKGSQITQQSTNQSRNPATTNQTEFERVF
Cyclin-dependent kinase 1/cyclin B1, sequence (P06493 whole entry): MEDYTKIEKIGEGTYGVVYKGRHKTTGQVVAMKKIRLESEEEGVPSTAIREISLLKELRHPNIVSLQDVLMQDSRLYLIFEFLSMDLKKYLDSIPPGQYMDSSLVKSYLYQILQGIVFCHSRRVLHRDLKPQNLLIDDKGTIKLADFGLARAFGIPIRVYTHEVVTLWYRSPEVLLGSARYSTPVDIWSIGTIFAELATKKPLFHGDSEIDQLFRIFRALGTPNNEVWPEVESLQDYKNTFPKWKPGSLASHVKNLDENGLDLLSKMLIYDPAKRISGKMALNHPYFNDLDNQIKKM
Cyclin-dependent kinase 1/cyclin B1, sequence (P14635 whole entry, further chain): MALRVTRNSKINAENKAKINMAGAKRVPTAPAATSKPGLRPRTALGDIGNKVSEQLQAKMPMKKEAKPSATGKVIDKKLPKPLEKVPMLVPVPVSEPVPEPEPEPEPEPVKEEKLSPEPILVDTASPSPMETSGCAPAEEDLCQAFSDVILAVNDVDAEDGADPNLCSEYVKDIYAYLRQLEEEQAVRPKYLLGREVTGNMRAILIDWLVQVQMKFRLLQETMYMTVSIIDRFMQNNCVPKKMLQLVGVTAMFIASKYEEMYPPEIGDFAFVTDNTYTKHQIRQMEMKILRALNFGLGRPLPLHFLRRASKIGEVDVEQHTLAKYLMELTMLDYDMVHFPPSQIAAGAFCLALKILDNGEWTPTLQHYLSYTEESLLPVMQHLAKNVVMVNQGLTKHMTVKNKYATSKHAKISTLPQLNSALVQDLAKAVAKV
Cyclin-dependent kinase 7/ cyclin H, sequence (P51946 whole entry): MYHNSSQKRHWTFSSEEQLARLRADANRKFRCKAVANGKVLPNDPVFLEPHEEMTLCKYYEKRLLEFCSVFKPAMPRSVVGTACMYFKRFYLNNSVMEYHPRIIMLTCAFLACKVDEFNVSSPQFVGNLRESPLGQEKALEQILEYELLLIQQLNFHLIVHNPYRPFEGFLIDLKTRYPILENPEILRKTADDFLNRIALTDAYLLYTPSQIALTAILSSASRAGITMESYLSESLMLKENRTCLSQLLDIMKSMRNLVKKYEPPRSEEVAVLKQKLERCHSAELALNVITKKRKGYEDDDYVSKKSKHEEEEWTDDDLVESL
Cyclin-dependent kinase 7/ cyclin H, sequence (P50613 whole entry): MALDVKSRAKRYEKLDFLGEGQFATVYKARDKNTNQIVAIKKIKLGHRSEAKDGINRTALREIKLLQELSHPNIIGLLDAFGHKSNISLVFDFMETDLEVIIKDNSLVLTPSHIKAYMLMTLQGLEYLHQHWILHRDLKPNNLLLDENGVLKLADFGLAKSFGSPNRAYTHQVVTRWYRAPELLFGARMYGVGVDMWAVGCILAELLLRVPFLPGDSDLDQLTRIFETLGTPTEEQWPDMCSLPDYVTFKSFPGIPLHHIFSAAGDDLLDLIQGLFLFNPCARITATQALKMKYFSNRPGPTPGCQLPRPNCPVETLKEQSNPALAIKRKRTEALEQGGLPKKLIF
Cyclin-dependent kinase 9 (Homo sapiens), sequence (P50750 whole entry): as the sequence (P50750 whole entry) above

For the compound `CNc1nc(C)c(-c2nc(Nc3cccc(S(=O)(=O)N4CCOCC4)c3)ncc2C#N)s1`, the Ki worked out at 55 nM in assay [1], 893 nM in [2], 14 nM in [3] and 73 nM in [4].
As for `CC(=O)N1CCN(c2cccc(Nc3ncc(F)c(-c4sc(N)nc4C)n3)c2)CC1`, the Ki in [1] is 77 nM; in assay [2], 1460 nM; in assay [3], 11 nM; in assay [4], 41 nM.
Take `CNc1nc(C)c(-c2nc(Nc3cccc(C(=O)N4CCN(C(C)=O)CC4)c3)ncc2C#N)s1`: the Ki in [1] is 134 nM; in assay [2], 552 nM; in [3], 17 nM; in assay [4], 166 nM.
Consider `CNc1nc(C)c(-c2nc(Nc3cccc(C(=O)N4CCN(C)CC4)c3)ncc2C#N)s1`, for which the Ki is 164 nM in assay [1], 840 nM in assay [2], 19 nM in [3] and 313 nM in assay [4]. The GI50 was determined as 1380 nM in assay [5] and 720 nM in [6].
For `CNc1nc(C)c(-c2nc(Nc3cc(C(=O)N4CCN(C)CC4)ccc3Cl)ncc2C#N)s1`, the Ki in assay [1] was > 5000 nM; in assay [2], > 5000 nM; in assay [3], 715 nM; in [4] it was > 5000 nM.
For the compound `CNc1nc(C)c(-c2nc(Nc3ccc(C)c(S(=O)(=O)N4CCOCC4)c3)ncc2F)s1`, the Ki in assay [1] is 130 nM; in assay [2] it was 133 nM; in assay [3], 11 nM; in [4] it was 101 nM.
On to `CNc1nc(C)c(-c2nc(Nc3ccc(C(=O)NC4CCN(C)CC4)cc3)ncc2C#N)s1`, for which the Ki was 32 nM in [1], 304 nM in [2], 8 nM in assay [3] and 43 nM in assay [4].
As for `Cc1nc(N)sc1-c1nc(Nc2cccc(S(N)(=O)=O)c2)ncc1F`, the Ki in assay [2] is 252 nM.
In the case of `CNc1nc(C)c(-c2ccnc(Nc3cccc(C(=O)N4CCOCC4)c3)n2)s1`, the Ki in [1] is 485 nM; in assay [2], 393 nM; in [3], 95 nM; in assay [4] it was 261 nM. Further, the GI50 in assay [5] worked out at 550 nM; in assay [6], 520 nM.
`Cc1nc(N)sc1-c1nc(Nc2cccc(N3CCN(C)CC3)c2)ncc1F`: the Ki in assay [1] was found to be 68 nM; in assay [2] it was 476 nM; in assay [3], 11 nM; in assay [4], 65 nM.
The corresponding values for `CNc1nc(C)c(-c2nc(Nc3cccc(C(=O)NC4CCN(C)CC4)c3)ncc2F)s1` are 231 nM, 542 nM, 36 nM and 64 nM.
With `CNc1nc(C)c(-c2nc(Nc3cccc(S(C)(=O)=O)c3)ncc2C#N)s1`, the Ki in assay [1] amounted to 43 nM; in assay [2], 110 nM; in [3], 5 nM; in assay [4], 19 nM.
With `CNc1nc(C)c(-c2nc(Nc3cccc(C(=O)NC4CCN(C)CC4)c3)ncc2C#N)s1`, the inhibition entry in assay [7], in [8] and in assay [9] was “Active” throughout. The Ki was 316 nM in assay [1], 163 nM in [2], 14 nM in assay [3] and 262 nM in [4].
With `CNc1nc(C)c(-c2nc(Nc3cccc(S(=O)(=O)NCCOC)c3)ncc2F)s1`, the Ki in assay [1] amounted to 6 nM; in [2] it was 30 nM; in assay [3], 3 nM; in [4], 10 nM.
On to `CNc1nc(C)c(-c2nc(Nc3cccc(S(=O)(=O)N4CCN(C)CC4)c3)ncc2C#N)s1`, for which the Ki worked out at 584 nM in [1], 24 nM in assay [2], 35 nM in assay [3] and 576 nM in assay [4].
Consider `CNc1nc(C)c(-c2nc(Nc3cccc(S(=O)(=O)NCCOC)c3)ncc2C#N)s1`, for which the Ki in assay [1] was 22 nM; in assay [2], 180 nM; in assay [3] it was 16 nM; in assay [4], 34 nM.
On to `CNc1nc(C)c(-c2nc(Nc3cccc(C(=O)N4CCOCC4)c3)ncc2C#N)s1`, for which the Ki was 199 nM in assay [1], 1870 nM in [2] and 205 nM in assay [4]. Besides, the GI50 in assay [5] was 820 nM; in [6] it was 590 nM. The Ratio Ki(app) in assay [10] stood at 43.
Regarding `CNc1nc(C)c(-c2nc(Nc3cccc(N4CCN(C)CC4)c3)ncc2F)s1`, the Ki was found to be 41 nM in assay [1], 541 nM in assay [2], 7 nM in [3] and 32 nM in [4].
Turning to `CNc1nc(C)c(-c2ccnc(Nc3ccc(C)c(S(=O)(=O)N4CCOCC4)c3)n2)s1`, the Ki in [1] amounted to 294 nM; in assay [2] it was 150 nM; in assay [3] it was 27 nM; in [4] it was 357 nM. The GI50 is 1610 nM in assay [5] and 940 nM in [6].
